Data set [1] concerns Plasma. The format is functional, Homo sapiens.
Description: Anticoagulant activity in human plasma assessed as concentration required to double activated partial thromboplastin time
The target in data set [2] is T1, Coagulation factor X (Homo sapiens, UniProt P00742).
Data set [3] concerns the target T2, Trypsin (Homo sapiens, UniProt P07477+P07478+P35030). The format is protein assay.
Description: Inhibition of trypsin (unknown origin)
A short description of data set [4]: in vivo. The note with it: dog, po, 1 mg/kg.
Description: Half life in dog at 1 mg/kg, po
Data set [5] addresses T2, Trypsin. It counts as protein assay. This is another data set of the same source.
Description: Inhibition of human trypsin assessed as release of p-nitroanilide from chromogenic substrate
A short description of data set [6]: physchem. The note with it: buffer, pH 7.4.
Description: Aqueous solubility at pH 7.4
The target of data set [7] is T3, Prothrombin (Homo sapiens, UniProt P00734).
Description: Binding affinity to thrombin (unknown origin)
The target in data set [8] is T3, Prothrombin. The source holds these as a separate data set.
The target of data set [9] is T4, Coagulation factor VII/tissue factor (Homo sapiens, UniProt P08709). It counts as protein-complex assay.
T4 sequence (P08709 61-212 limits assumed): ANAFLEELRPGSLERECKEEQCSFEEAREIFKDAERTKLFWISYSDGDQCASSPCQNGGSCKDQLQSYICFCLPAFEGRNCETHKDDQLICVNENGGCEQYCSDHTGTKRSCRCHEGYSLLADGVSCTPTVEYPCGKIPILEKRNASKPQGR
T4 sequence (P08709 213-466 limits assumed): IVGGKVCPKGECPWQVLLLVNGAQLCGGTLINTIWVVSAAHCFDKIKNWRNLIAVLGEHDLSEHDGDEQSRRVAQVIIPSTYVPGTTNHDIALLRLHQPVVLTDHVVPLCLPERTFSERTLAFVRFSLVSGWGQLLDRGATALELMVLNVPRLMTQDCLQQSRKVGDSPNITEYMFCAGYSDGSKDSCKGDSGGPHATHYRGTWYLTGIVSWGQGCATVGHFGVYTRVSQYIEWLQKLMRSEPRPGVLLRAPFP
T4 sequence (P13726 33-295 partner limits assumed): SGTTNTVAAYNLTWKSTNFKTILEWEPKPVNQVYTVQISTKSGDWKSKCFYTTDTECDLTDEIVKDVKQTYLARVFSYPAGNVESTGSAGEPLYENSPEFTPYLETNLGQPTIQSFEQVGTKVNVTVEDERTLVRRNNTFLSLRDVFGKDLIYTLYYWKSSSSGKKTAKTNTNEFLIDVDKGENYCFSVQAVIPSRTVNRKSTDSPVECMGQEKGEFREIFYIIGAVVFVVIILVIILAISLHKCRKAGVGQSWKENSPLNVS
The target in data set [10] is T4, Coagulation factor VII/tissue factor. It counts as protein-complex assay. This is another data set of the same source.
The target of data set [11] is T1, Coagulation factor X. This is another data set of the same source.
Data set [12] concerns the target T3, Prothrombin. The source holds these as a separate data set.
The conditions of data set [13]: cynomolgus monkey, plasma, iv, 0.4 mg/kg.
Description: Plasma concentration in cynomolgus monkey at 400 ug/kg/min, iv
The conditions of data set [14]: cynomolgus monkey, plasma, iv, 0.06 mg/kg.
Description: Plasma concentration in cynomolgus monkey at 60 ug/kg/min, iv

≈ marks a conversion by molar mass, not a printed value.

One may read the IC50 as the midpoint of a concentration-inhibition curve. Read a high IC50 as weaker potency in that assay. The term Ki denotes the equilibrium dissociation constant of an inhibitor or competing ligand from its target. A word on the half-life: it is the time needed for the level to fall by half in the phase considered. One may read the solubility as how much of the substance goes into solution per volume. A low value points to a poorly soluble substance.

T1 sequence (P00742 41-179 limits assumed): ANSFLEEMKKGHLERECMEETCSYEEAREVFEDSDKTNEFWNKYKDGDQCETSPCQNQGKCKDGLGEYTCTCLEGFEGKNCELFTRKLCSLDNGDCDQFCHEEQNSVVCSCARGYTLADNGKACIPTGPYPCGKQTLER
T1 sequence (P00742 235-488 limits assumed): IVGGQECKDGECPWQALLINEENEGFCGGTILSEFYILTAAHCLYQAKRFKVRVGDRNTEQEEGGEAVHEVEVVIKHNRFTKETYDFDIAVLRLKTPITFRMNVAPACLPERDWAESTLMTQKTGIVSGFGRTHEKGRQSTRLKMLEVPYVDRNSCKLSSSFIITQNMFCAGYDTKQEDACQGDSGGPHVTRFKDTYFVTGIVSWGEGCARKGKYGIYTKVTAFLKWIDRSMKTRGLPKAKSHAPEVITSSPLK

For `O=C(Cn1c(Cl)cnc(NCC(F)(F)c2cccc[n+]2[O-])c1=O)NCc1cc(Cl)ccc1-n1cnnn1`, the 2aPTT in [1] is reported as 130 nM. Same read-out and setting: then `O=C(Cn1c(Cl)cnc(NCC(F)(F)c2ccccn2)c1=O)NCc1cc(Cl)ccc1-n1cncn1`, with 170 nM. In the case of `CC(C)Nc1ccc(-c2cccc(N)c2)c(CC(=O)NCc2ccc(C(=N)N)cc2)c1F`, the IC50 in data set [2] is > 30 µM.

On to `Cc1cnc(NCC(F)(F)c2ccccn2)c(=O)n1CC(=O)NCc1ncccc1F`, for which, in data set [1], the 2aPTT worked out at 670 nM. This compound returned a Ki in data set [3] of 252 µM. Consider `N#Cc1cnc(NCC(F)(F)c2ccccn2)c(=O)n1CC(=O)NCc1ncccc1F`, for which the 2aPTT in [1] was 410 nM. The same compound showed a Ki in data set [3] of 213 µM. In [4], the half-life lay within 396 to 582 min. For `Cc1nc(N)ccc1CNC(=O)Cn1c(C)cnc(NCC(F)(F)c2ccccn2)c1=O`, in [1], the 2aPTT is recorded as 200 nM. The same compound yielded a Ki in [3] of 0.8 µM. In data set [5], `Cc1cnc(NCCc2ccccc2)c(=O)n1CC(=O)NCc1cc2cc[nH]c2cn1` gave a Ki of 95 µM. Compound `O=C(Cn1c(Cl)cnc(NCC(F)(F)c2cccc[n+]2[O-])c1=O)NCc1ccccc1F` came in with a 2aPTT in data set [1] of 400 nM. Still for that read-out and setting: then `O=C(Cn1c(Cl)cnc(NCC(F)(F)c2cccc[n+]2[O-])c1=O)NCc1ncccc1Cl`, with 470 nM. In the case of `O=C(Cn1c(Cl)cnc(NCC(F)(F)c2cccc[n+]2[O-])c1=O)NCc1ncccc1F`, the 2aPTT in [1] came out at 540 nM. Moreover, in data set [6], the concentration in solution (solubility) came to 44 µg/mL (≈ 93.9 µM).

In data set [1], `O=C(Cn1c(Cl)cnc(NCC(F)(F)c2ccccn2)c1=O)NCc1cc(Cl)ccc1-n1cnnn1` came in with a 2aPTT of 180 nM. For the same compound, in data set [7], the Ki lay in the range of 1.4 to 1.5 pM.

`O=C(Cn1c(Cl)cnc(NCC(F)(F)c2cccc[n+]2[O-])c1=O)NCc1cc(Cl)ccc1-n1cncn1` showed a 2aPTT in [1] of 200 nM. Take `Cc1cnc(NCCc2ccccn2)c(=O)n1CC(=O)NCc1cc2cc[nH]c2cn1`: in [5], the Ki is 200 µM. On the same count and under the same terms, then `Cc1cnc(NCCc2ccccn2)c(=O)n1CC(=O)NCc1ccc2[nH]ccc2c1`, with 290 µM. As to `N=C(N)NCCC[C@H](NC(=O)[C@H](Cc1cccnc1)NC(=O)[C@H](Cc1ccccc1)NS(=O)(=O)c1ccccc1)C(=O)c1nccs1`, the IC50 in [8] was determined as 100 µM; in data set [9], 200 nM. For `O=c1oc(-c2ccccc2F)nc2cnccc12`, the IC50 in data set [10] is 2600 nM; in data set [11], 90 µM. On to `Cc1ccccc1-c1nc2c(cnn2C)c(=O)o1`, for which the IC50 in data set [10] was 18000 nM; in [11] it was > 200 µM; in [12], 129 µM. The corresponding values for `O=c1oc(-c2ccccc2F)nc2ncccc12` are 2800 nM, 32 µM and 14.4 µM. For the compound `O=c1oc(-c2c(F)cccc2F)nc2cc(C(F)(F)F)ccc12`, the IC50 in data set [10] was found to be 1400 nM; in [11], 174 µM; in data set [12], 134 µM. Take `O=c1oc(-c2c(F)cccc2F)nc2cnccc12`: the results for the IC50 in [10], in data set [11] and in data set [12] were 1300 nM, > 200 µM and > 200 µM, respectively.

Consider `O=c1oc(-c2ccccc2F)nc2nccnc12`, for which the IC50 in [10] was > 200000 nM.

Turning to `O=c1oc(-c2c(F)cccc2F)nc2cc([N+](=O)[O-])ccc12`, the results for the IC50 in [10], in data set [11] and in data set [12] were 820 nM, 112 µM and > 200 µM, respectively. The corresponding values for `CCSc1ncc2c(=O)oc(-c3ccccc3F)nc2n1` are 15000 nM, > 200 µM and > 200 µM. Regarding `Cc1cnc(NCCc2ccccc2)c(=O)n1CC(=O)NCc1ccc2[nH]ccc2c1`, in data set [5], the Ki was > 100 µM. As for `CC(C)Nc1nc(Cl)c(-c2cc(N)cc(C(=O)O)c2)n(CC(=O)NCc2ccc(C(=N)N)cc2)c1=O`, the IC50 in [2] is > 100 µM. In data set [13], this compound came in with a Cp of 107 µg/mL.

`O=C(Cn1c(Cl)cnc(NCC(F)(F)c2ccccn2)c1=O)NCc1ncccc1F` [DPOC-4088] registered a 2aPTT in data set [1] of 780 nM. The same compound displayed a Ki in data set [3] of 202 µM. In [4], this compound came in with a half-life of 396 to 582 min. The same compound showed a solubility in data set [6] of 11 µg/mL (≈ 24.3 µM). As for `Cc1nc(N)ccc1CNC(=O)Cn1c(C)ccc(NS(=O)(=O)Cc2ccccc2)c1=O` [L-374087], the Ki in data set [5] came to 3.2 µM. For the compound `Cc1nc(N)ccc1CNC(=O)Cn1c(C)cnc(NCCc2ccccc2)c1=O` [L-375378], the Cp in [14] is 3 µg/mL.

The values are drawn from ChEMBL document CHEMBL4196003, “The selectivity and bioavailability improvement of novel oral anticoagulants: An overview” (Eur J Med Chem, 2018).
